Assay results: patent US12162934B2, “Gremlin-1 antagonist for the prevention and treatment of cancer” (UCB BIOPHARMA SRL, priority 2018, dated 2024)

Experiments:
[1] = target: T1, rhGremlin-1 (Homo sapiens, UniProt O60565); experiment: SMAD phosphorylation assay: restoration of p-SMAD signalling, lung fibroblasts from idiopathic pulmonary fibrosis patients; format: cell-based
T1 sequence (O60565 25-184): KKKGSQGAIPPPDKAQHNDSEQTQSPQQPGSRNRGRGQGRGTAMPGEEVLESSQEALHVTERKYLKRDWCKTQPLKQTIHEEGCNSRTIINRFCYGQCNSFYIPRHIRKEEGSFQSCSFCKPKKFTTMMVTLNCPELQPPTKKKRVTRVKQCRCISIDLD
Description: Antibodies were screened using the Hek-Id1 reporter gene assay described in Example 3 and by measuring SMAD phosphorylation. SMAD1, 5 and 8 are phosphorylated upon BMP signalling. Inhibitors of Gremlin-1 therefore increase SMAD phosphorylation.
SMAD phosphorylation assays were conducted on A549 cells or on human lung fibroblasts. Phosphorylation levels were determined using MSD.
Results are shown as a percentage of SMAD phosphorylation by BMP alone (control BMP). Experiments were performed using lung fibroblasts from idiopathic pulmonary fibrosis patients. rhGremlin-1 and the anti-Gremlin-1 antibodies were preincubated for 45 minutes at room temperature. rhGremlin-1 and the anti-Gremlin-1 antibodies were then added with BMP to the cells for 30 minutes.

[2] = target: T2, BMP4/7-Gremlin-1 complexes (Homo sapiens, UniProt O60565); experiment: SMAD phosphorylation assay: displacement of BMP4/7 from Gremlin 1-BMP complexes; format: cell-based; settings: BMP4/7 50 ng/ml
T2 sequence (O60565 25-184): T1 sequence (O60565 25-184)
Description: Experiments were again performed using lung fibroblasts from idiopathic pulmonary fibrosis patients. rhBMP-2 or rhBMP 4/7 were preincubated with rhGremlin-1 for 1 hour at room temperature. The BMP-2- or BMP4/7-Gremlin-1 complexes were incubated with different concentrations of the anti-Gremlin-1 antibodies overnight at 4° C. Antibody concentrations represent the final concentration on the plate.

[3] = system: Vil1-Grem1;Apc^Min mice; experiment: Vil1-Grem1;Apc^Min mouse polyposis model (survival); format: in vivo
[4] = system: 5TGM1.Bmx1 MM PCs; experiment: 5TGM1/KaLwRij mouse model of multiple myeloma, antibody prior to tumour cell inoculation; format: in vivo
Description: Targeting Grem1 prior to tumour cell inoculation in an immunocompetent murine model of systemic MM: C57BL/KaLwRij mice (6-8-week-old) were administered two doses of 30 mg/kg Grem1-neutralising antibody Ab7326 or IgG control Ab101.4 (UCB-Pharma, UK) by subcutaneous (s.c.) injection three days and one day prior to tumour inoculation. At Day 0, mice were inoculated with 5×10^5 5TGM1.Bmx1 cells via tail vein injection. Mice continued to receive either 30 mg/kg Grem1-neutralising antibody Ab7326 or IgG control Ab101.4 (UCB-Pharma, UK) by s.c. injection every 3 days for the duration of the 4-week model. Tumour burden was monitored weekly by BLI as previously described. At the end of the experiment, blood was collected by tail bleed, centrifuged at 2100 g for 10 min and serum collected. Serum paraprotein levels were analysed using the Hydragel 30 β1β2 kit (Sebia Electrophoresis, Georgia, USA) according to the manufacturer's instructions. The band corresponding to paraprotein was quantitated relative to serum albumin levels. (SAHMRI Animal Ethics SAM165)

[5] = system: Vil1-Grem1 mice; experiment: Vil1-Grem1 mouse polyposis model (phenotype, survival); settings: for median survival: vehicle 242 days
[6] = system: Vil1-Grem1 mice; experiment: AOM mutagenesis in Vil1-Grem1 mice; format: in vivo, mouse; settings: 30 mg/kg weekly antibody for three weeks before and after three 10 mg/kg weekly AOM doses
Description: Aberrant epithelial Grem1 expression in Vil1-Grem1 mice promotes an epithelial stem/progenitor cell phenotype (Davis et al., 2015), and we hypothesised that these cells would be susceptible to somatic mutation. We used azoxymethane (AOM) administration to examine the effect of a mutagenic insult on untreated Vil1-Grem1 and anti-Grem1 treated Vil1Grem1 mice. AOM is a well-documented mutagen widely utilised in murine models to recapitulate spontaneous CRC carcinogenesis (Neufert and Neurath, 2007).
Mice were treated with three subcutaneous doses of 30 mg/kg weekly anti-Grem1 antibody followed by three intraperitoneal doses of 10 mg/kg weekly azoxymethane (AOM, Sigma) or vehicle (saline) prior to a further three weeks of 30 mg/kg weekly anti-Grem1 antibody. Treatment commenced at or from the age of 90 days onwards, which is late enough in the Vil1-Grem1 disease process to ensure expansion of the progenitor cell population and subsequent formation of ectopic crypt foci.

“Ab7326: allosteric inhibitory anti-Gremlin-1 antibody from a naïve human library; CDRs SEQ ID NOS 4 to 9; mouse IgG1 in mouse experiments” was tested, and the “Restoration of p-SMAD signalling, percentage of SMAD phosphorylation by BMP alone” value ([1]; BMP 2 50 ng/ml) was 107.2%, the “Restoration of p-SMAD signalling, percentage of SMAD phosphorylation by BMP alone” value ([1]; BMP 4 25 ng/ml) was 110.0% and the “Restoration of p-SMAD signalling, percentage of SMAD phosphorylation by BMP alone” value ([1]; BMP4/7 50 ng/ml) was 127.0%. The “Restoration of p-SMAD signalling, percentage of SMAD phosphorylation by BMP alone” value ([1]; BMP 7 200 ng/ml) was 108.0%, the “Restoration of p-SMAD signalling, percentage of SMAD phosphorylation by BMP alone” value ([1]; BMP-2/7 50 ng/ml) was 128.5% and the “Displacement of BMP4/7 from Gremlin 1-BMP complexes (SMAD phosphorylation)” value (“Displacement” below) ([2]; antibody 0.63 μg/ml) was 102.0%. The “Displacement” value ([2]; antibody 1.27 μg/ml) was 111.1%, the “Displacement” value ([2]; antibody 2.55 μg/ml) was 120.9% and the “Displacement” value ([2]; antibody 5.1 μg/ml) was 121.4%. The “Displacement” value ([2]; antibody 10.2 μg/ml) was 125.6%, the “Displacement” value ([2]; antibody 20.3 μg/ml) was 130.3% and the “Displacement” value ([2]; antibody 40.6 μg/ml) was 132.3%. The “Displacement” value ([2]; antibody 81.3 μg/ml) was 133.7%, the median survival ([3]; 15 mg/kg weekly, from 21 days of age, vehicle 45 days) was 76.5 days and the mean lifespan ([3]; 30 mg/kg twice weekly from 3 weeks of age, untreated VG-min 46 days) was 108 days. It also gave a median survival ([3]; 30 mg/kg weekly, from 21 days of age, ongoing experiment) of 108 days, a median survival ([3]; 60 mg/kg weekly, from 21 days of age, ongoing experiment) of 111 days and a median survival ([3]; late stage: treatment at or from the age of 35 days, antibody 30 mg/kg weekly, 5FU two i.p. daily doses of 40 mg/kg, no treatment 45 days) of 49.5 days. The “Reduction in tumour burden (BLI)” value ([4]; 30 mg/kg s.c. from three days prior to inoculation, 4-weeks post-tumour cell inoculation, vs IgG control) was “approximately 75%”, the “Tumour burden in the hindlimb bones (BLI)” value ([4]; antibody prior to tumour cell inoculation, vs IgG control) was “significant reduction” and the “Additional reduction in overall tumour burden compared with treatment following tumour cell inoculation” value ([4]; end of the study) was 25%. For the same substance, the Splenic tumour burden ([4]; pre-tumour cell inoculation group) was “downwards trend”, the “M-spike intensity relative to serum albumin (SPEP)” value ([4]; week 4, vs IgG control) was “significantly lower” and the “Villus ectopic crypt formation and cell fate determination (immunohistochemical staining)” value ([5]; 30 mg/kg twice weekly for 6 weeks) was “reversal of villus ectopic crypt formation and deranged cell fate determination”. The Pan-intestinal polyposis phenotype ([5]; 30 mg/kg twice weekly subcutaneous for 6 weeks) was “highly significant abrogation”, the Animal lifespan ([5]; 30 mg/kg weekly subcutaneous from 6 weeks of age, prolonged dosing) was “significantly prolongs animal lifespan” and the Adverse events ([5]; Grem1 initiated polyposis models, animals treated for more than 400 days) was “No consistent adverse events have been observed”. For the same substance, the median survival ([5]; early stage treatment (42 days), 30 mg/kg weekly) was 540 days, the median survival ([5]; established polyposis, 30 mg/kg weekly from 5 months) was 477 days and the “Vil1-Grem1 intestinal phenotype at timed sacrifice” value ([5]; established polyposis, over 4 weeks of treatment) was “reversion of the Vil1-Grem1 intestinal phenotype”. For the same substance, the median survival ([5]; late-stage treatment (120 days), 30 mg/kg weekly) was 519 days and the “Increased tumour burden and reduced survival of AOM-treated animals” value [6] was “partially abrogated”.
